The test system of series [1] is arachidonic acid-induced ear swelling. In words: Arachidonic acid (AA) murine skin (ear) inflammation model, topical administration. In kind it is in vivo. To be noted: for anti-inflammatory activity (in words): arachidonic acid murine skin inflammation model. How it is done: Using the arachidonic acid (AA), murine skin inflammation model, described by Harris, R. R. et al. (Skin Pharmacol (1990) 3:2940) the anti-inflammatory activity of 1-[3-O-(18-β-Glycyrrhetinic acid)]-2-(α-L-C-methylfucopyranose)-2',3'-propanediol (5) was tested. For comparison, 18-β-glycyrrhetinic acid was also tested. All compounds were dissolved at 100 mg/mL in methanol or chloroform (18-β-glycyrrhetinic acid) except compound (5) which was at 0.80 mg/mL. 10 μL of each compound was applied to the ear. AA was applied alone, or followed immediately with 1-[3-O-(18-β-Glycyrrhetinic acid)]-2-(α-L-C-methylfucopyranose)-2',3'-propanediol (5) or 18-β-glycyrrhetinic acid. 90 minutes later a 6 mm disk of each ear was removed and weighed.

Another series deals with E-Selectin. In words: E-Selectin chimera binding to fixed LS174T colon carcinoma cells. In kind it is cell-based. Conditions: for interference with cancer cell binding to E-selectin (in words): LS174T colon carcinoma cells; for IC50: lowest concentration from serial two-fold dilutions which inhibits by 50% or more relative to control, range, read-out: IC50 of Compound in Assay of E-Selectin Binding To Fixed LS174T Colon Carcinoma Cells (Range). The procedure: Experiments were conducted to determine the capacity of the invention compounds to interfere with the binding of cancer cells to E-selectin. The compounds were dissolved in dimethylformamide (DMF) prior to being assayed. […] The mixture was rotated briskly on a rotary platform at room temperature for 30-60 minutes. Particulate matter was then removed by centrifugation, and the soluble fraction was transferred onto 96-well microtiter plates containing glutaraldehyde fixed LS174T colon carcinoma cells. […] Plates were developed in the dark and read at 405 nm. […] DMF (vehicle) typically had no effect. […] For all but 18-beta-glycyrrhetinic acid the compounds had low IC50 values, thus indicating their suitability for the treatment or prevention of certain forms of metastatic cancers.

Series [2] deals with T1, 5-Lipoxygenase (Rattus norvegicus, UniProt P12527).
T1 construct: crude enzyme preparation from rat basophilic leukemia cells (RBL-1); endogenous in cells; host or cells: RBL-1 (rat basophilic leukemia cells)
T1 sequence (P12527 1-673): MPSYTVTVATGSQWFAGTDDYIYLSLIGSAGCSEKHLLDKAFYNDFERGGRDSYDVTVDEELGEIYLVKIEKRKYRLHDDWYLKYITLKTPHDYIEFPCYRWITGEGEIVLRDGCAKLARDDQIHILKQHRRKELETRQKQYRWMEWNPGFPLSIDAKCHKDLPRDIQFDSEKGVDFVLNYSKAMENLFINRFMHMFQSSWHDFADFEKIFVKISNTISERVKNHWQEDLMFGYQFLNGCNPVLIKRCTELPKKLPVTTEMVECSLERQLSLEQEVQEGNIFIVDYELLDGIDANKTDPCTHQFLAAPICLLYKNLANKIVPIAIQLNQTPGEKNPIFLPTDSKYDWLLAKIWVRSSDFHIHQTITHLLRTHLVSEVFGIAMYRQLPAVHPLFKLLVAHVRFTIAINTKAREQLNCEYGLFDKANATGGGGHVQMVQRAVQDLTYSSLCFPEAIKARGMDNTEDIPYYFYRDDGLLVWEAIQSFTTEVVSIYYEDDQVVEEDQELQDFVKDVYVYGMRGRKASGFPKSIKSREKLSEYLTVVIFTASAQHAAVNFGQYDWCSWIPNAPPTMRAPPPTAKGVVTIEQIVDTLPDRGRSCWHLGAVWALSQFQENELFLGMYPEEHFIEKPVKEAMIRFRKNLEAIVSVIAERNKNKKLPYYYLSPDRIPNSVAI
In words: Inhibition of 5-Lipoxygenase, crude enzyme preparation from rat basophilic leukemia cells (RBL-1). It is filed as biochemical. The procedure: Thus, compounds that inhibit 5-lipoxygenase will have significant medical applications that require regulating or lowering leukotriene levels. Thus, the compounds of the instant invention were assayed for their capacity to inhibit 5-lipoxygenase. 5-Lipoxygenase assays were run using a crude enzyme preparation from rat basophilic leukemia cells (RBL-1) ([…]. and Samuelsson, B. Proc. Natl. Acad. Sci. […] W. and […]. Biol. Chem. (1985) 260:11554-11559). Test compounds were pre-incubated with the enzyme for 5 minutes at room temperature and the reaction is initiated by addition of substrate, […]. Following an 8 minute incubation at room temperature, the reaction was terminated by addition of NaOH, and absorbance read at 234 nm to determine levels of 5-HETE. Compounds were screened at 50 μM.

Series [3] relates to P-selectin. In words: Elisa of P-selectin binding to 2,3 sLex. Conditions: for IC50: Elisa, P-selectin 300 ng/ml, read-out: IC50 for inhibiting P-selectin binding to 2,3 sLex. The procedure:
(§1) In addition to E-selectin binding, certain of the invention compounds were tested for their capacity to inhibit P-selectin binding to cancer cells, and to a chemical known to bind to P-selectin, 2,3 sLex. The following materials and procedures were used.
(§2) Compound Preparation. Compound (5) of Example 5, and compound (8) of Example 8 were solubilized in DMF to yield a 100 mM solution.
(§3) P-Selectin Detection Solutions. Goat F(ab')2 anti-human IgG (Fc spec.)biotin and streptavidin-AP were diluted 1:1000 in 1% BSA-TBS with 1 mM Ca. An Elisa assay was utilized to measure P-selectin binding to 2,3 sLex, and P-selectin was added at 300 ng/ml. An Elisa assay was also used to assay for the capacity of the invention compounds to inhibit cancer cell binding to P-selectin. HL-60 cancer cells were used, and P-selectin was added at 200 ng/ml.
(§4) Plate Preparation. 2,3 sLex was coated at 30 pmoles/well to Probind microtiter plates for Elisa. The glycolipid was added at 50 μl/well in 50% MeOH and allowed to evaporate overnight. Elisa plates and HL-60 assay plates were blocked with 5% BSA-TBS Ca^++ for more than an hour at room temperature. The plates were washed with TBS without Ca^++.
Assay. Briefly, the assays were conducted as follows. Compounds (5) and (8) were added to P-selectin detection solutions at 4, 2, 1, 0.5, 0.25 and 0.125 mM for the HL-60 based assay, and at 2, 1, 0.5, 0.25, 0.125 and 0.063 mM for the assay involving 2,3 sLex. DMF solutions were added directly to 1% BSA/TBS-Ca for dilutions through 0.5 mM. Lower concentrations were made in serial two-fold dilutions in BSA-TBS. These solutions were incubated at room temperature on a rotating platform for 1 hour, centrifuged to pellet particulate matter, and then added in triplicate for 2,3 sLex coated plates, or quadruplicate for HL-60 cells at 50 μl/well. An equal volume of HL-60 cells was added to wells for the cell based assay. The 2,3 sLex coated plates were incubated at 37° C. for 45 minutes, washed 3× with TBS, and 50 μl of substrate added to each well. […]

Series [4] has as its system P-selectin. In words: P-selectin binding to HL-60 cells. In kind it is cell-based. To be noted: HL-60 assay; for IC50: P-selectin 200 ng/ml, read-out: IC50 for interfering with P-selectin binding to HL-60 cells. How it is done:
as §1, §2, §3, §4
Cell Preparation. HL-60 cells were harvested by centrifugation, washed with TBS no Ca^++, counted, and the density adjusted to 2×10^6 /ml in 1% BSA-TBS Ca^++.
Assay. Briefly, the assays were conducted as follows. Compounds (5) and (8) were added to P-selectin detection solutions at 4, 2, 1, 0.5, 0.25 and 0.125 mM for the HL-60 based assay, and at 2, 1, 0.5, 0.25, 0.125 and 0.063 mM for the assay involving 2,3 sLex. DMF solutions were added directly to 1% BSA/TBS-Ca for dilutions through 0.5 mM. Lower concentrations were made in serial two-fold dilutions in BSA-TBS. These solutions were incubated at room temperature on a rotating platform for 1 hour, centrifuged to pellet particulate matter, and then added in triplicate for 2,3 sLex coated plates, or quadruplicate for HL-60 cells at 50 μl/well. An equal volume of HL-60 cells was added to wells for the cell based assay. The 2,3 sLex coated plates were incubated at 37° C. for 45 minutes, washed 3× with TBS, and 50 μl of substrate added to each well. Plates with HL-60 cells were incubated at 4° C. for 1 hour, the cells pelleted by centrifugation and washed 3× with TBS. For both assays, substrate was added at 75 μl/well. After color developed to an appropriate intensity, 50 μl/well was transferred to another plate for O.D. determination at 405 nm.

The conditions of series [5]: J. Med. Chem. (1974) 17(2):184-191; cited from earlier work.
For series [6], the system named is 5-lipoxygenase. To be noted: Sotomatsu et al. 1959; Inoue et al. 1986; cited from earlier work.

The structures appear in SMILES notation. Values joined by “and” are separate entries in the source; they are usually repeats but may differ in a detail not shown here. Equal values may be shown once. “Also recorded” adds a separate entry of the source. Bounds are passed on as bounds.

Consider `CC(CO[C@H]1CC[C@]2(C)[C@H]3C(=O)C=C4[C@@H]5C[C@@](C)(C(=O)O)CC[C@]5(C)CC[C@@]4(C)[C@]3(C)CC[C@H]2C1(C)C)C[C@@H]1O[C@@H](C)[C@@H](O)[C@@H](O)[C@@H]1O` (stereo partly drawn) [(3), 1-[3-O-(18-β-Glycyrrhetinic acid)]-2-(α-L-C-methylfucopyranose)-propane], for which the “anti-inflammatory activity (in words)” value in series [1] is reported as “significant anti-inflammatory activity”. In the series on E-Selectin, the “interference with cancer cell binding to E-selectin (in words)” value is listed as “markedly lower IC50 values relative to 18-beta-glycyrrhetinic acid” and the IC50 was 60 to 125 µM.
In the case of `CC1(C)[C@@H](O)CC[C@]2(C)[C@H]3C(=O)C=C4[C@@H]5C[C@@](C)(C(=O)O)CC[C@]5(C)CC[C@@]4(C)[C@]3(C)CC[C@@H]12` [18-β-glycyrrhetinic acid], the IC50 in the series with E-Selectin was 125 to 500 µM. On 5-Lipoxygenase [2], this compound came in with an inhibition at 100 µM of 36% and an inhibition at 1000 µM of 81%.
Regarding `C[C@@H]1O[C@@H](CC(O)(CO)CO[C@H]2CC[C@]3(C)[C@H]4C(=O)C=C5[C@@H]6C[C@@](C)(C(=O)O)CC[C@]6(C)CC[C@@]5(C)[C@]4(C)CC[C@H]3C2(C)C)[C@@H](O)[C@H](O)[C@@H]1O` (stereo partly drawn) [Compound (5), 1-[3-O-(18-β-Glycyrrhetinic acid)]-2-(α-L-C-methylfucopyranose)-2',3'-propanediol], the “anti-inflammatory activity (in words)” value in series [1] is on record as “significant anti-inflammatory activity”. For the same compound, the “percent inhibition of swelling caused by AA alone” value in series [1] (topical, 10 μL of 0.80 mg/mL solution, 90 minutes) is “about 71%”. Moreover, in series [1] (topical, arachidonic acid ear model, 800 μg applied), the “% Inhibition of Swelling” value came to 71.3%. In the series on E-Selectin, the “interference with cancer cell binding to E-selectin (in words)” value was “markedly lower IC50 values relative to 18-beta-glycyrrhetinic acid” and the IC50 was 60 to 125 µM. Besides, in the series with P-selectin [3], the “inhibition of P-selectin binding to sLex (in words)” value is reported as “did inhibit P-selectin binding to sLex, it was less effective than compound (8)”; the IC50 was < 1000 µM and > 500 µM. Besides, in the series with P-selectin [4], the “interference with P-selectin binding to HL-60 cells (in words)” value is recorded as “interfered with P-selecting binding to HL-60 cells in a dose dependent manner, but was again less effective than compound (8)” and the IC50 is roughly 2000 µM. In addition, at 5-Lipoxygenase [2], testing at 100 µM gave an inhibition of 20% and 1000 µM produced 74% inhibition. The “inhibitory activity relative to glycyrrhizin (in words)” value against 5-Lipoxygenase [2] (both concentrations tested) is recorded as “significantly greater inhibitory activity”.
With `CC1(C)[C@@H](O)CC[C@]2(C)[C@H]3CC=C4[C@@H]5C[C@@](C)(C(=O)O)CC[C@]5(C)CC[C@@]4(C)[C@]3(C)CC[C@@H]12` [11-Deoxoglycyrrhetinic acid], the “aldosterone (DCA)-like activity (in words)” value in series [5] is “does not substantially show the DCA activity of the parent compound”.
With `C[C@@H]1O[C@@H](CC(=O)CO[C@H]2CC[C@]3(C)[C@H]4C(=O)C=C5[C@@H]6C[C@@](C)(C(=O)O)CC[C@]6(C)CC[C@@]5(C)[C@]4(C)CC[C@H]3C2(C)C)[C@@H](O)[C@H](O)[C@@H]1O` [(8), 1-[3-O-(18-β-Glycyrrhetinic acid)]-2-oxo-2-(α-L-C-methylfucopyranose)-ethane], the “anti-inflammatory activity (in words)” value in series [1] was “activity similar to compounds (3) and (5); also recorded: significant anti-inflammatory activity”. For the same compound, the IC50 in the series with E-Selectin was 60 to 250 µM; at P-selectin [3] it was roughly 125 µM; with P-selectin [4], roughly 750 µM. For the same compound, the “interference with P-selectin binding to HL-60 cells (in words)” value with P-selectin [4] is recorded as “interfered with P-selectin binding to HL-60 cells in a dose dependent way”.
As to `CC1(C)[C@@H](O[C@H]2O[C@H](C(=O)O)[C@@H](O)[C@H](O)[C@H]2O[C@@H]2O[C@H](C(=O)O)[C@@H](O)[C@H](O)[C@H]2O)CC[C@]2(C)[C@H]3C(=O)C=C4[C@@H]5C[C@@](C)(C(=O)O)CC[C@]5(C)CC[C@@]4(C)[C@]3(C)CC[C@@H]12` [Glycyrrhizin], on 5-Lipoxygenase [2], the inhibition at 100 µM was 9% and the inhibition at 1000 µM worked out at 31%.
As to `CC1(C)[C@@H](O)CC[C@]2(C)[C@H]3C(=O)C=C4[C@@H]5C[C@@](C)(C(=O)O)CC[C@]5(C)CC[C@@]4(C)[C@]3(C)CC[C@@H]12` [Glycyrrhetinic acid], the “inhibition of enzymes involved in leukotriene biosynthesis, including 5-lipoxygenase (in words)” value in the series with 5-lipoxygenase [6] is listed as “shown to inhibit enzymes involved in leukotriene biosynthesis, including 5-lipoxygenase activity”.

By IC50 is commonly meant the midpoint of a concentration-inhibition curve. The inhibition is how much of the control response was suppressed.

(Values after patent US5679644A, “Methods of treating diseases using triterpenoid acid derivatives” (Glycomed Incorporated, priority 1995, dated 1997).)
